What all share (assay type): in vivo, mouse
One experiment relates to CysLT1 receptor gene. In words: PCR of Cysltr1 gene expression in the cochlea after noise exposure. Particulars: 3 day after noise exposure, montelukast post-treatment vs noise exposure group.
The subject of another experiment is stereocilia of OHC. In words: Scanning electron microscopy (SEM) of cochlear hair cells after noise exposure. Particulars: basal turn areas corresponding to 32 kHz, montelukast post-treatment compared with only-noise exposed group.
The test system of experiment [1] is matrix metalloproteinase-3 (Mmp3). Kind of experiment: Gene and protein expression of Mmp3 in inner ear tissue after noise exposure (FIG. 10).
For a further experiment, the system named is hair cells. Kind of experiment: Surface preparation / Texas-Red phalloidin staining of hair cells of the Corti's organ after noise exposure. Particulars: 1 week after noise exposure, 32 kHz site; montelukast post-treatment group compared with noise exposure group.

Procedure for CysLT1 receptor gene: At 1 day, 3 day, and 7 day, the animal was euthanized with urethane intraperitoneal injection (1 g/kg) and the bilateral temporal bone was immediately removed. Two isolated cochleae were dissolved in a TRIzol solution, the lipid was removed by adding chloroform, and then RNA gene was extracted with isopropanol alcohol. The extracted RNA gene was quantified, mixed with two types of forward and reverse primers and polymerase, and amplified at an average of 35 cycles for each primer through a PCR machine, and then changes in expression level for each gene were compared and analyzed by measuring the fluorescent degree.
Source text for stereocilia of OHC: The SEM was used for evaluating the form of the hair cells of the cochlea. The mouse was euthanized after intraperitoneal injection of urethane, and temporal bones were dissected at both sides from the skull in order to obtain the cochlea to be carefully cut. The fenestra rotunda of the obtained cochlea was perforated by using a sharp needle. An outer lymph space was perfused with 2% glutaraldehyde in PBS by positioning a Pasteur pipette having a modified butterfly catheter for the fenestra rotunda. Each sample was left in a glutaraldehyde solution overnight. The samples were perfused with 1% osmium tetroxide and positioned at a tissue rotator for 15 minutes. The samples were rinsed with PBS three times. Under an optical microscope, the bone part of the cochlea was carefully removed and a lateral wall was cut and removed to expose the Corti's organ. The tissue was continuously dehydrated with 50, 70, 90, 95, and 100% acetones. Each specimen was treated with hexamethyldisilazane (HMDS) and dried in air, and positioned in a stove for coating of platinum. The tissue was photographed by JSM-6380 (Jeol, Tokyo, Japan). The damage to the hair cells was analyzed in basal turn areas corresponding to 32 kHz.

Take `CC(C)(O)c1ccccc1CCC(SCC1(CC(=O)[O-])CC1)c1cccc(/C=C/c2ccc3ccc(Cl)cc3n2)c1.[Na+]` (centres unmarked) [montelukast]: in the experiment on CysLT1 receptor gene, the “CysLT1 receptor gene (Cysltr1) expression” value was “significantly decreased”. In the experiment with stereocilia of OHC, the “damage to the stereocilia of OHC” value is “significantly reduced”. Moreover, the “Mmp3 gene expression level” value in experiment [1] (montelukast post-treatment after noise exposure (FIG. 10A)) was “reduction”. Also, in experiment [1] (western blot, montelukast post-treatment after noise exposure (FIG. 10B)), the “Mmp3 protein expression level” value is reported as “reduction”. In the experiment with hair cells, the “hair cell marker (phalloidin)” value was “significantly increased”.

(Values after patent publication US10441616B2, “Pharmaceutical composition for treating or preventing sensorineural hearing loss, containing cysteinyl leukotriene receptor antagonist and ginkgo leaf extract” (AJOU UNIVERSITY INDUSTRY-ACADEMIC COOPERATION FOUNDATION, priority 2014, dated 2019).)
